Data from patent publication US20230095836A1, “SUBSTITUTED 5,6-DIPHENYL-3(2H)-PYRIDAZINONES FOR USE AS FUNGICIDES” (FMC Corporation, priority 2020, published 2023).

Tests used:
Format in all cases: in vivo
Zymoseptoria tritici = assay: Test A: test solution sprayed on wheat seedlings, inoculated next day with Zymoseptoria tritici (wheat leaf blotch); disease rating (100 = 100% disease control, 0 = no control; dash = not tested)
Experimental: The resulting test suspensions were then used in Tests A-F. The test solution was sprayed to the point of run-off on wheat seedlings. The following day the seedlings were inoculated with a spore suspension of Zymoseptoria tritici (the causal agent of wheat leaf blotch) and incubated in a saturated atmosphere at 24° C. for 48 h, and then moved to a growth chamber at 20° C. for 17 days, after which time disease ratings were made. A rating of 100 indicates 100% disease control and a rating of 0 indicates no disease control (relative to the controls). A dash (—) indicates the compound was not tested.

[1] = system: Puccinia recondita f. sp. tritici; assay: Test B: test solution sprayed on wheat seedlings, inoculated next day with Puccinia recondita f. sp. tritici (wheat leaf rust); disease rating (100 = 100% disease control, 0 = no control; dash = not tested)
From the text: The resulting test suspensions were then used in Tests A-F. The test solution was sprayed to the point of run-off on wheat seedlings. […] A rating of 100 indicates 100% disease control and a rating of 0 indicates no disease control (relative to the controls). A dash (—) indicates the compound was not tested.

[2] = system: Blumeria graminis f. sp. tritici; assay: Test C: test suspension sprayed on wheat seedlings, inoculated next day with Blumeria graminis f. sp. tritici (wheat powdery mildew); visual disease rating (100 = 100% disease control, 0 = no control; dash = not tested)
Experimental: The resulting test suspensions were then used in Tests A-F. The test suspension was sprayed to the point of run-off on wheat seedlings. The following day the seedlings were inoculated with a spore dust of Blumeria graminis f. sp. tritici, (also known as Erysiphe graminis f. sp. tritici, the causal agent of wheat powdery mildew) and incubated in a growth chamber at 20° C. for 8 days, after which time visual disease ratings were made. A rating of 100 indicates 100% disease control and a rating of 0 indicates no disease control (relative to the controls). A dash (—) indicates the compound was not tested.

Phakopsora pachyrhizi = assay: Test D: test solution sprayed on soybean seedlings, inoculated next day with Phakopsora pachyrhizi (Asian soybean rust); visual disease rating (100 = 100% disease control, 0 = no control; dash = not tested)
From the text: General protocol for preparing test suspensions for Tests A-F: the test compounds were first dissolved in acetone in an amount equal to 3% of the final volume and then suspended at the desired concentration (in ppm) in acetone and purified water (50/50 mix by volume) containing 250 ppm of the surfactant PEG400 (polyhydric alcohol esters). The resulting test suspensions were then used in Tests A-F.
The test solution was sprayed to the point of run-off on soybean seedlings. The following day the seedlings were inoculated with a spore suspension of Phakopsora pachyrhizi (the causal agent of Asian soybean rust) and incubated in a saturated atmosphere at 22° C. for 24 h and then moved to a growth chamber at 22° C. for 8 days, after which time visual disease ratings were made.
A rating of 100 indicates 100% disease control and a rating of 0 indicates no disease control (relative to the controls). A dash (—) indicates the compound was not tested.

Botrytis cinerea = assay: Test E: test suspension sprayed on tomato seedlings, inoculated next day with Botrytis cinerea (tomato Botrytis); visual disease rating (100 = 100% disease control, 0 = no control; dash = not tested)
Experimental: (§1) The resulting test suspensions were then used in Tests A-F. The test suspension was sprayed to the point of run-off on tomato seedlings. The following day the seedlings were inoculated with a spore suspension of Botrytis cinerea (the causal agent of tomato Botrytis) and incubated in a saturated atmosphere at 20° C. for 48 h, and then moved to a growth chamber at 24° C. for 3 days, after which time visual disease ratings were made. A rating of 100 indicates 100% disease control and a rating of 0 indicates no disease control (relative to the controls). A dash (—) indicates the compound was not tested.

Alternaria solani = assay: Test F: test suspension sprayed on tomato seedlings, inoculated next day with Alternaria solani (tomato early blight); visual disease rating (100 = 100% disease control, 0 = no control; dash = not tested)
Experimental: as §1, with “Alternaria solani” for “Botrytis cinerea”, “early blight)” for “Botrytis)”, “27°” for “20°”, “20°” for “24°”

| Structure (SMILES) | Test A disease control rating (Zymoseptoria tritici; 50 ppm) [%] | Test B disease control rating ([1]; 50 ppm) [%] | Test C disease control rating ([2]; 50 ppm) [%] | Test D disease control rating (Phakopsora pachyrhizi; 50 ppm) [%] | Test E disease control rating (Botrytis cinerea; 50 ppm) [%] | Test F disease control rating (Alternaria solani; 50 ppm) [%] | Test A disease control rating (Zymoseptoria tritici; 250 ppm) [%] | Test B disease control rating ([1]; 250 ppm) [%] | Test C disease control rating ([2]; 250 ppm) [%] | Test D disease control rating (Phakopsora pachyrhizi; 250 ppm) [%] | Test E disease control rating (Botrytis cinerea; 250 ppm) [%] | Test F disease control rating (Alternaria solani; 250 ppm) [%] | also measured |
| --- | --- | --- | --- | --- | --- | --- | --- | --- | --- | --- | --- | --- | --- |
| CCn1nc(-c2cc(OC)cc(OC)c2Cl)c(-c2c(F)cccc2F)c(C)c1=O [Compound 22] | 100 | 100 | 98 | 98 | 100 | 79 |  |  |  |  |  |  |  |
| CCn1nc(-c2c(F)cccc2F)c(-c2c(F)cccc2F)cc1=O [Compound 23] |  |  |  |  |  |  | 0 | 0 | 0 | 0 | 0 | 0 |  |
| CCn1nc(-c2ccc(F)cc2Cl)c(-c2ccc(F)cc2Cl)c(Cl)c1=O [Compound 24] |  |  |  |  |  |  | 100 | 80 | 93 | 0 | 100 | 0 |  |
| CCn1nc(-c2cc(OC)cc(OC)c2)c(-c2ccc(F)cc2Cl)cc1=O [Compound 26] |  |  |  |  |  |  | 12 | 55 | 96 | 0 | 99 | 0 |  |
| COc1cc(F)cc(-c2nn(C)c(=O)cc2-c2c(F)cccc2F)c1 [Compound 27] |  |  |  |  |  |  | 99 | 99 | 97 | 56 | 96 | 0 |  |
| Cn1nc(-c2cc(F)ccc2Cl)c(-c2c(F)cccc2F)cc1=O [Compound 28] |  |  |  |  |  |  | 100 | 100 | 100 | 0 | 100 | 0 |  |
| Cn1nc(-c2cccc(F)c2Cl)c(-c2c(F)cccc2F)cc1=O [Compound 29] |  |  |  |  |  |  | 100 | 98 | 99 | 25 | 100 | 0 |  |
| COc1cccc(-c2nn(C)c(=O)cc2-c2c(F)cccc2F)c1Cl [Compound 30] |  |  |  |  |  |  | 100 | 99 | 84 | 98 | 100 | 41 |  |
| COc1cc(OC)c([N+](=O)[O-])c(-c2nn(C)c(=O)cc2-c2c(F)cccc2F)c1Cl [Compound 31] | 0 | 9 | 0 | 0 | 0 | 0 |  |  |  |  |  |  |  |
| CCn1nc(-c2cc(OC)cc(OC)c2)c(-c2c(F)cccc2F)cc1=O [Compound 32] |  |  |  |  |  |  | 0 | 9 | 29 | 0 | 80 | 0 |  |
| CCc1c(-c2ccc(F)cc2Cl)c(-c2c(Cl)c(OC)cc(OC)c2Br)nn(C)c1=O [Compound 45] | 0 | 0 | 69 | 0 | 0 | 0 |  |  |  |  |  |  |  |
| CCc1c(-c2c(F)cccc2F)c(-c2c(F)cccc2F)nn(C)c1=O [Compound 46] | 99 | 98 | 95 | 0 | 88 | 99 |  |  |  |  |  |  |  |
| COc1cc(OC)c(Cl)c(-c2nn(C)c(=O)c(C)c2-c2ccc(F)cc2Cl)c1Cl [Compound 47] | 52 | 68 | 43 | 0 | 91 | 0 |  |  |  |  |  |  |  |
| COc1ccc(Cl)c(-c2nn(C)c(=O)c(OC)c2-c2ccc(F)cc2F)c1 [Compound 48] | 100 | 100 | 99 | 97 | 98 | 99 |  |  |  |  |  |  |  |
| Cn1nc(-c2cc(C#N)ccc2Cl)c(-c2ccc(F)cc2Cl)c(Cl)c1=O [Compound 49] | 100 | 100 | 98 | 96 | 96 | 99 |  |  |  |  |  |  |  |
| COc1ccc(Cl)c(-c2nn(C)c(=O)c(OC)c2-c2c(F)cccc2F)c1 [Compound 50] | 100 | 98 | 99 | 36 | 96 | 100 |  |  |  |  |  |  |  |
| COc1cc(C#N)c(Cl)c(-c2nn(C)c(=O)c(Cl)c2-c2ccc(F)cc2Cl)c1 [Compound 51] | 100 | 100 | 99 | 100 | 96 | 100 |  |  |  |  |  |  |  |
| COc1cc(-c2nn(C)c(=O)c(Cl)c2-c2ccc(F)cc2Cl)cc(C#N)c1Cl [Compound 52] | 100 | 100 | 99 | 98 | 92 | 100 |  |  |  |  |  |  |  |
| COc1c(-c2ccc(F)cc2Cl)c(-c2cc(C#N)ccc2Cl)nn(C)c1=O [Compound 53] | 100 | 100 | 99 | 68 | 92 | 40 |  |  |  |  |  |  |  |
| COc1cc(OC)cc(-c2nn(C)c(=O)c(Cl)c2-c2ccc(F)cc2Cl)c1 [Compound 55] | 99 | 100 | 98 | 99 | 99 | 99 |  |  |  |  |  |  |  |
| Cn1nc(-c2ccc(F)cc2Cl)c(-c2ccc(F)cc2Cl)c(Cl)c1=O [Compound 60] | 100 | 100 | 99 | 93 | 98 | 99 |  |  |  |  |  |  |  |
| COc1cc(OC)c(Br)c(-c2nn(C)c(=O)c(Br)c2-c2ccc(F)cc2Cl)c1 [Compound 61] | 100 | 100 | 94 | 99 | 100 | 99 |  |  |  |  |  |  |  |
| COc1cc(OC)c(Br)c(-c2nn(C)c(=O)c(C)c2-c2ccc(F)cc2Cl)c1 [Compound 64, 6-(2-bromo-3,5-dimethoxyphenyl)-5-(2-chloro-4-fluorophenyl)-2,4-dimethyl-3(2H)-pyridazinone] |  |  |  |  |  |  |  |  |  |  |  |  | pest or weed control at 50 ppm (Zymoseptoria tritici; 50 ppm): 100%; pest or weed control at 50 ppm ([1]; 50 ppm): 100%; pest or weed control at 50 ppm ([2]; 50 ppm): 100%; pest or weed control at 50 ppm (Phakopsora pachyrhizi; 50 ppm): 100%; pest or weed control at 50 ppm (Botrytis cinerea; 50 ppm): 100%; pest or weed control at 50 ppm (Alternaria solani; 50 ppm): 100% |
